Measured values published in US4652561A, “Naphtho[1,2-b]-1,4-thiazepinones” (Hoffmann-La Roche Inc., priority 1986, dated 1987).

Experiments:
Guinea Pig Ileum = test: Guinea pig ileum assay - tonic contraction (calcium channel blocking activity); conditions: inhibition of K^+ (80 mM) induced tonic contraction, 37° C.
Protocol: GUINEA PIG ILEUM ASSAY--TONIC CONTRACTION
Male guinea-pigs weighing from 300-400 grams were stunned and bled. The abdomen was opened and 10-15 cm of terminal ileum was carefully removed and cleaned and placed in Tyrode's Solution of the following composition: NaCl (8 g/l), KCl (0.2 g/l), MgCl2 (0.2 g/l.). CaCl2 (0.2 g/l). NaH2 PO4 (0.05 g/l), NaHCO3 (1.0 g/l) and Glucose (1 g/l). The solution was maintained at 37° C. and gassed with 95%O2 and 5%CO2. Portions of the ileum were placed over a glass rod, a shallow incision was made the length of the mesenteric attachment just severing the outer-longitudinal muscle layer. The longitudinal muscle was separated from the underlying circular muscle by gentle dissection (Rang, H. P. Annals of N.Y. Academy of Science Vol. 144, page 756, (1964)). The tissue was fixed at one end to a tissue holder, the other end was connected by a thread to a force transducer and suspended in a muscle bath containing Tyrode's Solution maintained at 37° C. and gassed with 95%O2 and 5%CO2. An initial tension of 500 mg was applied and the tissue allowed to equilibrate for 60 minutes prior to the start of the study. During this period the tissue was washed every 16 minutes. Each preparation, at 16 minute intervals, was challenged with KCl sufficient to yield a bath K^+ concentration of 80 mMK for 2 minutes, then washed with fresh solution. The 16 minute interval between K^+ challenges was maintained throughout the study. Upon stabilization of the responses to the K^+ challenge the test compound (potential calcium entry antagonist) was introduced into the bath 2 minutes prior to and during the 2 minute exposure to K^+ after which the bath was cleared and washed with fresh solution. Logarithmically increasing doses (up to 10^-4 M) of the potential antagonist were administered as the study progressed.
The measure of compound's ability to inhibit the tonic contraction of muscle is a measure of its activity as a calcium channel blocking agent.

SH rat = test: Blood pressure lowering in the spontaneously hypertensive (SH) rat; assay type: in vivo; conditions: 50 mg/kg p.o.; for Duration: duration of SBP lowering
Protocol: BLOOD PRESSURE LOWERING IN THE SPONTANEOUSLY HYPERTENSIVE (SH) RAT
Six male SH rats were used for each test. Body weights were recorded. Six pre-drug control recordings of the systolic blood pressure (mmHg) were measured from the tails of the rats which were unanesthetized and restrained in holders. The rats were previously heated for 5-10 minutes at 32°-34° C. The systolic blood pressure was measured by an occlusion cuff.
The compounds were administered orally to the rats in a composition that included 5% compound and the remainder gum acacia. The blood pressure of the rats was measured over a period of hours following oral administration.
The measure of a compound's ability to decrease blood pressure, is a measure of its ability as an anti-hypertensive agent.

Compound | IC50 (Guinea Pig Ileum) [µM] | Systolic Blood Pressure (SBP) in the SH rat, SBP (Δ mm Hg) (SH rat) [mm Hg] | Duration (SH rat) [h]
COc1ccc([C@@H]2Sc3c(ccc4ccccc34)N(CCN(C)C)C(=O)[C@@H]2O)cc1 (racemic) [C, (±)-cis-5-[2-(dimethylamino)ethyl]-2,3-dihydro-3-hydroxy-2-(4-methoxyphenyl)naphtho[1,2-b]-1,4-thiazepin-4(5H)-one] | 0.52 |  | 
COc1ccc([C@@H]2Sc3c(ccc4ccccc34)N(CCN(C)C)C(=O)[C@@H]2OC(C)=O)cc1 (racemic) [D, (±)-cis-3-(acetyloxy)-2,3-dihydro-2-(4-methoxyphenyl)-5-[2-(dimethylamino)ethyl]naphtho[1,2-b]-1,4-thiazepin-4(5H)-one] | 0.23 |  | 
COc1ccc([C@@H]2Sc3c(ccc4ccccc34)N(CCN(C)C)C(=O)[C@H]2OC(C)=O)cc1 (racemic) [H, (±)-trans-3-(acetyloxy)-2,3-dihydro-2-(4-methoxyphenyl)-5-[2-(dimethylamino)ethyl]naphtho[1,2-b]-1,4-thiazepin-4(5H)-one] | 46 |  | 
COc1ccc([C@@H]2Sc3c(ccc4ccccc34)N(CCN(C)C)C(=O)[C@@H]2OC(C)=O)cc1 [A, (+)-cis-3-(acetyloxy)-2,3-dihydro-2-(4-methoxyphenyl)-5-[2-(dimethylamino)ethyl]naphtho[1,2-b]-1,4-thiazepin-4(5H)-one] | 1.3 | -67 ± 7 | 19

Continued, in another order:

IC50 (Guinea Pig Ileum) [µM] | Compound | Systolic Blood Pressure (SBP) in the SH rat, SBP (Δ mm Hg) (SH rat) [mm Hg] | Duration (SH rat) [h]
63 | COc1ccc([C@@H]2Sc3c(ccc4ccccc34)N(CCN(C)C)C(=O)[C@H]2O)cc1 (racemic) [G, (±)-trans-2,3-dihydro-3-hydroxy-2-(4-methoxyphenyl)-5-[2-(dimethylamino)ethyl]naphtho[1,2-b]-1,4-thiazepin-4(5H)-one] |  | 
1.1 | COc1ccc([C@@H]2Sc3c(ccc4ccccc34)N(CCN(C)C)C(=O)[C@@H]2O)cc1 [B, (+)-cis-5-[2-(dimethylamino)ethyl]-2,3-dihydro-3-hydroxy-2-(4-methoxyphenyl)naphtho[1,2-b]-1,4-thiazepin-4(5H)-one] | -63 ± 9 | 24
56 | COc1ccc([C@@H]2Sc3c(ccc4ccccc34)N(CCN(C)C)C(=O)[C@@H]2O)cc1 [E, (-)-cis-2,3-dihydro-3-hydroxy-2-(4-methoxyphenyl)-5-[2-(dimethylamino)ethyl]naphtho[1,2-b]-1,4-thiazepin-4(5H)-one] |  | 
